Source: PubChem BioAssay AID1919008 (Molecular Pharmacology Branch, DTP, NCI, 2023)

System: DMS-114 complex spheroids with HUVEC/MSC, growth % test/control
Assay: Anticancer human tumor DMS-114 cell line growth inhibition [AhR];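 note: spheroids exposed to agents for 7 days before readout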;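 for viability, T/C: 100% = DMSO vehicle control wells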
Conditions: for IC50: curve of first compound; for viability, T/C: stronger effect = lower value
Outline: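 Spheroids combined tumor cells with HUVEC endothelial cells and human MSCs as stroma. AhR antagonists were paired with standard or investigational drugs, each dosed in half-log steps down from near clinical Cmax, or from 10 microM where Cmax was unknown.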

[1] = second compound 0.1 µM, first compound 0.0316 µM
[2] = second compound 0.1 µM, first compound 0.1 µM
[3] = second compound 0.1 µM, first compound 0.316 µM
[4] = second compound 0.1 µM, first compound 1 µM
[5] = second compound 0.1 µM, first compound 3.16 µM
[6] = second compound 0.1 µM, first compound 10 µM
[7] = second compound 0.316 µM, first compound 0.0316 µM
[8] = second compound 0.316 µM, first compound 0.1 µM
[9] = second compound 0.316 µM, first compound 0.316 µM
[10] = second compound 0.316 µM, first compound 1 µM
[11] = second compound 0.316 µM, first compound 3.16 µM
[12] = second compound 0.316 µM, first compound 10 µM
[13] = second compound 1 µM, first compound 0.0316 µM
[14] = second compound 1 µM, first compound 0.1 µM
[15] = second compound 1 µM, first compound 0.316 µM
[16] = second compound 1 µM, first compound 1 µM
[17] = second compound 1 µM, first compound 3.16 µM
[18] = second compound 1 µM, first compound 10 µM
[19] = second compound 3.16 µM, first compound 0.0316 µM
[20] = second compound 3.16 µM, first compound 0.1 µM
[21] = second compound 3.16 µM, first compound 0.316 µM
[22] = second compound 3.16 µM, first compound 1 µM
[23] = second compound 3.16 µM, first compound 3.16 µM
[24] = second compound 3.16 µM, first compound 10 µM
[25] = second compound 10 µM, first compound 0.0316 µM
[26] = second compound 10 µM, first compound 0.1 µM
[27] = second compound 10 µM, first compound 0.316 µM
[28] = second compound 10 µM, first compound 1 µM
[29] = second compound 10 µM, first compound 3.16 µM
[30] = second compound 10 µM, first compound 10 µM

CC1(C)CCC(CN2CCN(c3ccc(C(=O)NS(=O)(=O)c4ccc(NCC5CCOCC5)c([N+](=O)[O-])c4)c(Oc4cnc5[nH]ccc5c4)c3)CC2)=C(c2ccc(Cl)cc2)C1 + Cc1cncc(-c2nc(NCCc3c[nH]c4ccccc34)c3ncn(C(C)C)c3n2)c1
IC50 (second compound 0.1 µM): > 10000 nM
IC50 (second compound 0.316 µM): > 10000 nM
IC50 (second compound 1 µM): > 10000 nM
IC50 (second compound 3.16 µM): > 10000 nM
IC50 (second compound 10 µM): 6390 nM
viability, T/C [1]: 91.9%
viability, T/C [2]: 92.7%
viability, T/C [3]: 101%
viability, T/C [4]: 106%
viability, T/C [5]: 94.9%
viability, T/C [6]: 110%
viability, T/C [7]: 91.5%
viability, T/C [8]: 95.7%
viability, T/C [9]: 95.5%
viability, T/C [10]: 107%
viability, T/C [11]: 102%
viability, T/C [12]: 98.9%
viability, T/C [13]: 102%
viability, T/C [14]: 102%
viability, T/C [15]: 108%
viability, T/C [16]: 97.6%
viability, T/C [17]: 110%
viability, T/C [18]: 101%
viability, T/C [19]: 96.8%
viability, T/C [20]: 86.8%
viability, T/C [21]: 93.8%
viability, T/C [22]: 103%
viability, T/C [23]: 96.3%
viability, T/C [24]: 84.7%
viability, T/C [25]: 50.9%
viability, T/C [26]: 60.2%
viability, T/C [27]: 58.3%
viability, T/C [28]: 47.8%
viability, T/C [29]: 45%
viability, T/C [30]: 53.7%

CCN(c1cc(-c2ccc(CN3CCOCC3)cc2)cc(C(=O)NCc2c(C)cc(C)[nH]c2=O)c1C)C1CCOCC1 + Cc1cncc(-c2nc(NCCc3c[nH]c4ccccc34)c3ncn(C(C)C)c3n2)c1
IC50 (second compound 0.1 µM): > 3000 nM
IC50 (second compound 0.316 µM): > 3000 nM
IC50 (second compound 1 µM): > 3000 nM
IC50 (second compound 3.16 µM): > 3000 nM
IC50 (second compound 10 µM): 361 nM
viability, T/C (second compound 0.1 µM, first compound 0.00949 µM): 92.9%
viability, T/C (second compound 0.1 µM, first compound 0.03 µM): 97.4%
viability, T/C (second compound 0.1 µM, first compound 0.0949 µM): 92.9%
viability, T/C (second compound 0.1 µM, first compound 0.3 µM): 92.6%
viability, T/C (second compound 0.1 µM, first compound 0.949 µM): 82.7%
viability, T/C (second compound 0.1 µM, first compound 3 µM): 70.8%
viability, T/C (second compound 0.316 µM, first compound 0.00949 µM): 94.9%
viability, T/C (second compound 0.316 µM, first compound 0.03 µM): 89.3%
viability, T/C (second compound 0.316 µM, first compound 0.0949 µM): 109%
viability, T/C (second compound 0.316 µM, first compound 0.3 µM): 90.5%
viability, T/C (second compound 0.316 µM, first compound 0.949 µM): 78.9%
viability, T/C (second compound 0.316 µM, first compound 3 µM): 59%
viability, T/C (second compound 1 µM, first compound 0.00949 µM): 99.1%
viability, T/C (second compound 1 µM, first compound 0.03 µM): 101%
viability, T/C (second compound 1 µM, first compound 0.0949 µM): 95.9%
viability, T/C (second compound 1 µM, first compound 0.3 µM): 91.2%
viability, T/C (second compound 1 µM, first compound 0.949 µM): 76.6%
viability, T/C (second compound 1 µM, first compound 3 µM): 68.8%
viability, T/C (second compound 3.16 µM, first compound 0.00949 µM): 99.3%
viability, T/C (second compound 3.16 µM, first compound 0.03 µM): 97.8%
viability, T/C (second compound 3.16 µM, first compound 0.0949 µM): 90%
viability, T/C (second compound 3.16 µM, first compound 0.3 µM): 92%
viability, T/C (second compound 3.16 µM, first compound 0.949 µM): 74.8%
viability, T/C (second compound 3.16 µM, first compound 3 µM): 63.5%
viability, T/C (second compound 10 µM, first compound 0.00949 µM): 58.2%
viability, T/C (second compound 10 µM, first compound 0.03 µM): 55.2%
viability, T/C (second compound 10 µM, first compound 0.0949 µM): 54.3%
viability, T/C (second compound 10 µM, first compound 0.3 µM): 50.9%
viability, T/C (second compound 10 µM, first compound 0.949 µM): 45.7%
viability, T/C (second compound 10 µM, first compound 3 µM): 46.4%

Cn1ncnc1C1c2n[nH]c(=O)c3cc(F)cc(c23)NC1c1ccc(F)cc1 (stereo not given) + Cc1cncc(-c2nc(NCCc3c[nH]c4ccccc34)c3ncn(C(C)C)c3n2)c1
IC50 (second compound 0.1 µM): > 100 nM
IC50 (second compound 0.316 µM): > 100 nM
IC50 (second compound 1 µM): > 100 nM
IC50 (second compound 3.16 µM): > 100 nM
IC50 (second compound 10 µM): < 0.316 nM
viability, T/C (second compound 0.1 µM, first compound 0.000316 µM): 103%
viability, T/C (second compound 0.1 µM, first compound 0.001 µM): 93.9%
viability, T/C (second compound 0.1 µM, first compound 0.00316 µM): 100%
viability, T/C (second compound 0.1 µM, first compound 0.01 µM): 105%
viability, T/C [1]: 98.2%
viability, T/C [2]: 75.5%
viability, T/C (second compound 0.316 µM, first compound 0.000316 µM): 87.5%
viability, T/C (second compound 0.316 µM, first compound 0.001 µM): 89.6%
viability, T/C (second compound 0.316 µM, first compound 0.00316 µM): 88.1%
viability, T/C (second compound 0.316 µM, first compound 0.01 µM): 87.1%
viability, T/C [7]: 84.7%
viability, T/C [8]: 80.2%
viability, T/C (second compound 1 µM, first compound 0.000316 µM): 94.1%
viability, T/C (second compound 1 µM, first compound 0.001 µM): 99%
viability, T/C (second compound 1 µM, first compound 0.00316 µM): 96.8%
viability, T/C (second compound 1 µM, first compound 0.01 µM): 93.6%
viability, T/C [13]: 93.3%
viability, T/C [14]: 81.3%
viability, T/C (second compound 3.16 µM, first compound 0.000316 µM): 85.4%
viability, T/C (second compound 3.16 µM, first compound 0.001 µM): 95.4%
viability, T/C (second compound 3.16 µM, first compound 0.00316 µM): 89.3%
viability, T/C (second compound 3.16 µM, first compound 0.01 µM): 77.3%
viability, T/C [19]: 79.2%
viability, T/C [20]: 74.9%
viability, T/C (second compound 10 µM, first compound 0.000316 µM): 47.6%
viability, T/C (second compound 10 µM, first compound 0.001 µM): 50.7%
viability, T/C (second compound 10 µM, first compound 0.00316 µM): 42.7%
viability, T/C (second compound 10 µM, first compound 0.01 µM): 41.6%
viability, T/C [25]: 37.6%
viability, T/C [26]: 45.2%

NS(=O)(=O)OCC1CC(n2ccc3c(NC4CCc5ccccc54)ncnc32)CC1O (stereo not given) + Cc1cncc(-c2nc(NCCc3c[nH]c4ccccc34)c3ncn(C(C)C)c3n2)c1
IC50 (second compound 0.1 µM): 50.3 nM
IC50 (second compound 0.316 µM): 45.8 nM
IC50 (second compound 1 µM): 42 nM
IC50 (second compound 3.16 µM): 40.5 nM
IC50 (second compound 10 µM): < 31.6 nM
viability, T/C [1]: 59.4%
viability, T/C [2]: 36%
viability, T/C [3]: 17.1%
viability, T/C [4]: 7.31%
viability, T/C [5]: 5.19%
viability, T/C [6]: 4.45%
viability, T/C [7]: 56.9%
viability, T/C [8]: 35.4%
viability, T/C [9]: 16.1%
viability, T/C [10]: 6.55%
viability, T/C [11]: 5.26%
viability, T/C [12]: 3.74%
viability, T/C [13]: 55%
viability, T/C [14]: 34.7%
viability, T/C [15]: 17.6%
viability, T/C [16]: 6.95%
viability, T/C [17]: 4.06%
viability, T/C [18]: 4.6%
viability, T/C [19]: 54.9%
viability, T/C [20]: 32.2%
viability, T/C [21]: 15.8%
viability, T/C [22]: 4.55%
viability, T/C [23]: 4.39%
viability, T/C [24]: 2.86%
viability, T/C [25]: 42.2%
viability, T/C [26]: 24.6%
viability, T/C [27]: 12.2%
viability, T/C [28]: 3.49%
viability, T/C [29]: 2.11%
viability, T/C [30]: 1.61%
